{"source": "patent US10463735B2", "about": "“Method and apparatus for adjusting corneal curvature through digital corneal crosslinking” (ZHEJIANG UNIVERSITY, priority 2016, dated 2019)", "system": "cornea", "assay": "Digital corneal crosslinking: photoinitiator solution dropped on the cornea, then selective local irradiation through a digital micromirror device", "format": "in vivo", "description": "A digital corneal crosslinking method to adjust the corneal curvature wherein a composition comprising a photoinitiator compound is administered to the corneal stromal of the subject, and the corneal is selectively and locally irradiated by utilizing digital micromirror device (DMD) controlled by a computer, whereby the corneal curvature is altered.\n(§1) The epithelial tissue of an area of 7 mm diameter in the middle of the cornea was removed after superficial anesthesia. A dextran solution of 200 g/L with 1 g/L riboflavin was dropped to corneal surface in batches. The location of the riboflavin diffused into the corneal surface was observed by cobalt blue light of a slit lamp. Digital corneal crosslinking device was used to selectively irradiate the local area of the cornea. The light's wavelength is 365 nm, the irradiation area is shown in FIG. 2, the light power is 1.2 mW/cm^2, irradiation time is 5 minutes.\nDuring irradiation process, a photoinitiator solution and superficial anesthesia were used to wash the corneal surface in phases. Antibiotic eye formulations were applied to the eye and corneal contact lens were used until the corneal epithelium was healed.\nThe epithelial tissue of an area of 7 mm diameter in the middle of the cornea was removed after superficial anesthesia. A dextran solution of 200 g/L with 1 g/L riboflavin sodium phosphate was dropped to corneal surface in batches. The location of the riboflavin diffused into the corneal surface was observed by cobalt blue light of a slit lamp. Digital corneal crosslinking device was used to selectively irradiate the local area of the cornea. The light's wavelength is 365 nm, the irradiation area is the same like that in example 1, the light power is 1.2 mW/cm^2, irradiation time is 5 minutes.\nas §1, with “of 5-9” for “of 7”, “g/L eosin Y” for “g/L riboflavin”, “the eosin Y” for “the riboflavin”, “is 550” for “is 365”, “FIG. 3,” for “FIG. 2,”\nDuring irradiation process, the eosin Y solution and superficial anesthesia were used to wash the corneal surface in phases. Antibiotic eye formulations were applied to the eye and corneal contact lens were used until the corneal epithelium was healed.\nas §1, with “tissue” for “tissue of an area of 7 mm diameter in the middle”, “removed and a” for “removed after superficial anesthesia. A”, “FIG. 4,” for “FIG. 2,”\nThe epithelial tissue of the cornea was kept intact and a dextran solution of 200 g/L with 1.5 g/L EDTA sodium and 1.5 g/L riboflavin was dropped to corneal surface in batches. The location of the riboflavin diffused into the corneal surface was observed by cobalt blue light of a slit lamp. Digital corneal crosslinking device was used to selectively irradiate the local area of the cornea."}
{"compound": "Cc1cc2nc3c(=O)[nH]c(=O)nc-3n(C[C@H](O)[C@H](O)[C@H](O)COP(=O)(O)O)c2cc1C", "note": "[riboflavin sodium phosphate]", "values": [{"measurement": "corneal surface curvature", "setting": "Example 2: epithelium removed (7 mm), dextran solution 200 g/L with 1 g/L riboflavin sodium phosphate, 365 nm, irradiation area as example 1, 1.2 mW/cm^2, 5 minutes", "result": "the same as example 1"}]}
{"compound": "Cc1cc2nc3c(=O)[nH]c(=O)nc-3n(C[C@H](O)[C@H](O)[C@H](O)CO)c2cc1C", "note": "[riboflavin]", "values": [{"measurement": "corneal surface curvature", "setting": "Example 1: epithelium removed (7 mm), dextran solution 200 g/L with 1 g/L riboflavin, 365 nm, irradiation area of FIG. 2, 1.2 mW/cm^2, 5 minutes", "result": "increased"}, {"measurement": "corneal curvature", "setting": "Example 4: epithelium removed, dextran solution 200 g/L with 1 g/L riboflavin, 365 nm, irradiation area of FIG. 4, 1.2 mW/cm^2, 5 minutes", "result": "locally changed"}, {"measurement": "result (corneal surface curvature)", "setting": "Example 5: epithelium kept intact, dextran solution 200 g/L with 1.5 g/L EDTA sodium and 1.5 g/L riboflavin, 365 nm, irradiation area as example 1, 1.2 mW/cm^2, 10 minutes", "result": "the same as example 1"}]}
{"compound": "O=C([O-])c1ccccc1-c1c2cc(Br)c(=O)c(Br)c-2oc2c(Br)c([O-])c(Br)cc12.[Na+].[Na+]", "note": "[eosin Y]", "values": [{"measurement": "corneal surface curvature", "setting": "Example 3: epithelium removed (5-9 mm), dextran solution 200 g/L with 1 g/L eosin Y, 550 nm, irradiation area of FIG. 3, 1.2 mW/cm^2, 5 minutes", "result": "decreased"}]}
